Patent US20100291242A1, “ANTAGONIST AGAINST TOLERANCE TO ANTICANCER DRUGS” (Yoshikazu SUGIMOTO, priority 2004, published 2010)
In brackets after ≈: the same amount, converted by molar mass. Where two headings read alike, the source gives them in different places. Blank lines part the entries; values can stand above or below the compound they belong to.

How the values were obtained:
[1] = system: MCF-7/MycBCRP cells; test: Cell growth inhibition test, MCF-7/MycBCRP cells; type: cell-based, human; details: for IC50: Homo sapiens, MCF7, 96 h, read-out: IC50 (concentration at which cell growth is inhibited by 50%); for IC50 / IC50 (concentration at which cell growth is inhibited by 50%): 4 days
Experimental: The cells were named MCF-7/MycBCRP. […] In each lane, 20 μg of protein was electrophoresed.
(§1) A cell growth inhibition test was performed to investigate the sensitivity of MCF-7 cells and MCF-7/MycBCRP cells to SN-38. Respective cells were seeded on 12-well plates (Iwaki) in amounts of 30,000 cells/1 mL/well. Subsequently, the drug, diluted with a medium to different concentrations, was added thereto (1 mL per well). The plates were placed in a 5% CO2 incubator and cultivation was performed at 37° C. for […]. Four days after, a cell solution in each well was added to a beaker containing a […] diluent (9.5 mL, To a Medical Electronics Co.). The number of cells was counted by means of a Sysmex CDA-500 automatic cell counter (To a Medical Electronics Co.).
(§2) A cell growth inhibition test was performed to investigate whether estradiol induces any change in sensitivity of MCF-7 cells and MCF-7/MycBCRP cells to SN-38. Respective cells were seeded on 12-well plates (Iwaki) in amounts of 30,000 cells/1 mL/well. Subsequently, the drug, diluted with a medium to different concentrations, was added thereto (1 mL per well). The final concentration of estradiol was adjusted to 0.03 nM or 3 nM. The plates were placed in a 5% CO2 incubator and cultivation was performed at 37° C. for 4 days. Four days after, a cell solution in each well was added to a beaker containing a […] diluent (9.5 mL, To a Medical Electronics Co.). The number of cells was counted by means of a Sysmex CDA-500 automatic cell counter (To a Medical Electronics Co.). In FIG. 4, the cell count is shown by “% of control,” which was obtained by dividing “the cell count as measured when the drug diluted to have different concentrations was added” by “the cell count as measured when no such drug was added.”

[2] = system: MCF-7 cells; test: Cell growth inhibition test, MCF-7 cells; type: cell-based, human; details: for IC50: Homo sapiens, MCF7, 96 h, read-out: IC50 (concentration at which cell growth is inhibited by 50%); for IC50 / IC50 (concentration at which cell growth is inhibited by 50%): 4 days
Experimental: as §1, §2

[3] = system: BCRP; details: MCF-7 cells
Experimental: Western blotting was performed to investigate the effect of a steroid hormone and a female hormone on MCF-7, A549, and JEG-3 cells, which intrinsically express BCRP at high level, in terms of the expression level of BCRP. […] Afterwards, expression level of BCRP was determined through the Western blotting technique using an anti-BCRP antibody. In each lane, 30 μg of protein was electrophoresed.

[4] = system: p-glycoprotein; test: Western blotting of exogenous p-glycoprotein expression in MCF-7/MDR1 cells; type: cell-based, human; details: estradiol 3 nM, 4 days, antibody C219

IC50 ([1]; E2 (estradiol) 0.03 nM): 0.68 ± 0.03 ng/mL (≈ 0.824 nM)
IC50 ([1]; E2 (estradiol) 3 nM): 0.6 ± 0.02 ng/mL (≈ 0.727 nM)
IC50 ([2]; E2 (estradiol) 0.03 nM): 0.64 ± 0.01 ng/mL (≈ 0.776 nM)
IC50 ([2]; E2 (estradiol) 3 nM): 0.6 ± 0.02 ng/mL (≈ 0.727 nM)
Compound: CC[C@]1(O)C[C@H]2CN(CCc3c([nH]c4ccccc34)[C@@](C(=O)OC)(c3cc4c(cc3OC)N(C=O)[C@H]3[C@@](O)(C(=O)OC)[C@H](OC(C)=O)[C@]5(CC)C=CCN6CC[C@]43[C@@H]65)C2)C1 [Vincristine, vincristine]

Compound: CCc1c2c(nc3ccc(O)cc13)-c1cc3c(c(=O)n1C2)COC(=O)[C@]3(O)CC [SN-38, 7-ethyl-10-hydroxycamptothecin]
increase in sensitivity at estradiol 3 nM as compared with 0.03 nM [1]: about twice
IC50 (concentration at which cell growth is inhibited by 50%) ([1]; E2 (estradiol) 0.03 nM): 2.13 ± 0.19 ng/mL (≈ 5.43 nM)
IC50 (concentration at which cell growth is inhibited by 50%) ([1]; E2 (estradiol) 3 nM): 1.09 ± 0.09 ng/mL (≈ 2.78 nM)
sensitivity at estradiol 0.03 nM and 3 nM (in words) [2]: almost the same level
IC50 (concentration at which cell growth is inhibited by 50%) ([2]; E2 (estradiol) 0.03 nM): 0.64 ± 0.06 ng/mL (≈ 1.63 nM)
IC50 (concentration at which cell growth is inhibited by 50%) ([2]; E2 (estradiol) 3 nM): 0.50 ± 0.02 ng/mL (≈ 1.27 nM)

Compound: CC/C(=C(/CC)c1ccc(O)cc1)c1ccc(O)cc1 [diethylstilbestrol]
effect on expression of endogenous BCRP (in words) [3]: suppressive effect

Compound: C[C@]12CC[C@@H]3c4ccc(O)cc4CC[C@H]3[C@@H]1CC[C@@H]2O [estradiol]
decrease of expression level of exogenous p-glycoprotein [4]: about 20%
